We go through three compounds from patent publication US8716256B2, “Method of therapy and diagnosis of atherosclerosis” (Kaoshiung Medical University, priority 2011, dated 2014).

Common to all, as to assay type: cell-based, human
The test system of data set [1] is let-7g. Kind of data set: let-7g expression in HASMC by northern blot and real time PCR. To be noted: HASMC treated with oxLDL plus suppressor; FIGS. 18, 21, 25. As to the method:
In FIGS. 7 and 8, there is the relationship between oxLDL and let-7g in the HASMC. In the present embodiment, the HASMC are treated with various levels of oxLDL, for example 0, 20, 40 and 60 μg/ml, in order to monitor and to recorder the effect of oxLDL on let-7g. Similarly, the HASMC cell is grown in a 6-well plate till at a density of 2×10^5 cell/well, and then randomly assigned into plural groups with the treatment of 0, 20, 40 and 60 μg/ml oxLDL individually for 24 hours. Finally, total RNA samples of each group of HASMC are analyzed by northern blot and quantified real time PCR via above protocols. In the present embodiment, a primer pair of let-7g as set forth in SEQ ID NO: 7 and 8 is used in the teal time PCR analysis according to the same PCR program described above. Also, the northern blot of the present invention is determined by using a miRNA northern blot assay kit (Applied Biosystems, CA, USA). […]
(§1) In the present embodiment, the HASMCs are randomly assigned into four groups, including groups (O1), as a control; (O2), with treatment of oxLDL; (O3), with co-transfection of the OCT-1 shRNA; and (O4), with co-transfection of the OCT-1 shRNA and treatment of oxLDL, wherein total RNA samples and protein sample of those groups are extracted and analyzed by the real time PCR and the western blot of the present invention. […]
(In general: In qPCR the cycle at which signal appears reflects the starting amount.)

Data set [2] has as its system LOX-1. Kind of data set: LOX-1 expression in HASMC by real time PCR and western blot. Particulars: for oxLDL-induced LOX-1 expression (mRNA): HASMC treated with oxLDL plus suppressor, FIGS. 19, 22, 26; for protein levels of LOX-1 (western blot): HASMC with suppressor, with or without oxLDL, FIGS. 20, 23, 28. The protocol: With reference to FIG. 2, there center on the expression of oxLDL and LOX-1 in human aortic smooth muscle cells. In the present embodiment, a primary human aortic smooth muscle cells (HASMC) cell line purchased from Cascade Biologics (OR, USA) is prepared and treated with various levels of oxLDL. More specifically, the HASMC cell line is incubated in a commercial smooth muscle cell growth supplement (SMGS) medium (Cascade Biologics, OR, USA) at 37° C. in a humidified atmosphere of 95% air and 5% CO2.
In the present embodiment, the HASMC cell line is grown in a 6-well plate till at a density of 2×10^5 cell/well, and then randomly assigned into four groups. The four groups of HASMC are co-cultured with 0, 20, 40, and 60 μg/ml of oxLDL individually for 24 hours, followed by analyzing the gene expression of HASMC via real time polymerase chain reaction (PCR) and western blot. Total RNA samples of the four groups of HASMC are prepared by using a Trizol® reagent (Invitrogen, CA, USA), and further quantitatively confirmed by a spectrophotometer at A260/A280 readings. Then, cDNA samples of the four groups of HASMC are synthesized by using a random primer and a MultiScribe™ Reverse Transcriptase Kit (Applied Biosystems Inc, CA, USA). The cDNA samples of the four groups of HASMC are sequentially diluted in 2×SYBR Green PCR Master Mix (Applied Biosystems Inc, CA, USA) to carry out quantitative real time PCR analysis. In the present invention, a primer pair of LOX-1 is designed and used in the real time PCR analysis, wherein the primer pair of LOX-1 is set forth in SEQ ID NO. 3 and 4.
On the other hand, protein samples of the four groups of HASMC are prepared by harvesting the four groups of HASMC in RIPA buffer (Invitrogen, CA, USA) firstly and centrifuged at 4° C. 1,2000 rpm to obtain supernatants as total cell lysate of the four groups of HASMC. In the present embodiment, the four groups of protein lysate are denatured in a mixture of 2% SDS, 10 mM dithiothreitol, 60 mM Tris-HCl (pH6.8) and 0.1% bromphenol blue, and then analyzed by polyacrylamide/SDS gel. Data obtained from the polyacrylamide/SDS gel analysis are further transferred to PVDF membrane for western blot assay.
In FIG. 9, the expression of LOX-1 in HASMC under various levels of let-7g is monitored and reordered. […]
as §1

The test system of data set [3] is OCT-1. Put plainly: OCT-1 expression in HASMC by real time PCR and western blot. To be noted: for protein levels of OCT-1 (western blot): HASMC with suppressor, with or without oxLDL, FIGS. 23, 28. The protocol: The following trials stress on the mechanism between let-7g, LOX-1, oxLDL and OCT-1. In FIG. 17, the expression of OCT-1 under various levels of oxLDL is shown. In the present embodiment, […], and then total RNA samples and protein samples of the HASMC are prepared and analyzed by the real time PCR and western blot assay of the present invention. Precisely, the preparation of the total RNA samples and the protein samples of the HASMC, also the PCR program and western blot assay are performed according to the above protocols. Moreover, a primer pair of OCT-1 set forth in SEQ ID NO. 19 and 20 is designed and used in real time PCR analysis, and a commercial OCT-1 antibody (Sigma-Aldrich Inc, MO, USA) is used in western blot assay.
In the present embodiment, primer pairs set forth in SEQ ID NO. 3, 4, 7, 8, 19, 20, the LOX-1 antibody, and the OCT-1 antibody are used respectively in PCR or western blot assay.
With reference to FIG. […] More specifically, […], such as 0, 25, 50, and 75 μg/ml, […] 2000, […] by real time PCR and western blot according to the protocols described above. Moreover, primer pairs set forth in SEQ ID NO. 19 and 20, and the OCT-1 antibody are used respectively in PCR or western blot analysis.

The test system of data set [4] is 3'UTR region of LOX-1. Kind of data set: LOX-1 3'UTR luciferase reporter assay in CRL-1999 cells. Particulars: groups U1 to U7, FIG. 12. The source says:
Referring to FIGS. 10 and 11, the relationship between oxLDL, LOX-1 and let-7g is further identified. In the present invention, the 3′UTR region of LOX-1 is cloned into a commercial vector, preferably downstream of a reporter gene, such as a luciferase gene, for the sake of studying the effect of oxLDL and let-7g on LOX-1 by estimating the activity of the reporter gene. In the present embodiment, a pMIR-LOX-1-3UTR vector is obtained by PCR amplifying the 3′UTR region of LOX-1 in the chromosome DNA of HASMC with a primer pair set forth in SEQ ID NO. 9 and 10; and cloning the amplified 3′UTR region of LOX-1 into a pMIR-REpORT luciferase vector (Ambion Inc, TX, USA). Furthermore, the pMIR-LOX-1-3UTR vector of the present embodiment is transfected into a human smooth muscle cell line CRL-1999 purchased from ATCC (Manassas, Va., USA) by using lipofectamine 2000 (Invitrogen Inc, CA, USA). In the present embodiment, the CRL-1999 cell line of the present embodiment is incubated in F12K Kaighn's modification medium (GIBCO-BRL, MD, USA) with various levels of oxLDL and let-7g mimic, followed by analyzed the activity of luciferase by a Luciferase Assay System (Promega, WI, USA). […]
(A reporter such as luciferase makes a cellular process visible.)

In the case of `COc1ccc2c(c[n+](C)c3c4cc5c(cc4ccc23)OCO5)c1OC` [chelerythrine], in data set [1], the “oxLDL-mediated inhibition on let-7g (relative let-7g levels)” value is “inhibited”. In data set [2], the “oxLDL-induced LOX-1 expression (mRNA)” value was “inhibited” and the “protein levels of LOX-1 (western blot)” value is on record as “significant decrease”. In addition, the “protein levels of OCT-1 (western blot)” value in data set [3] is reported as “significant decrease”.

Regarding `CC(=O)OCOC(=O)CN(CC(=O)OCOC(C)=O)c1ccc(C)cc1OCCOc1cc(C)ccc1N(CC(=O)OCOC(C)=O)CC(=O)OCOC(C)=O` [MAPTAM], the “oxLDL-mediated inhibition on let-7g (relative let-7g levels)” value in data set [1] was “decreased”. Moreover, in data set [2], the “oxLDL-induced LOX-1 expression (mRNA)” value was “decreased” and the “protein levels of LOX-1 (western blot)” value was “significant decrease”. Further, the “oxLDL-induced OCT-1 expression (mRNA)” value in data set [3] (HASMC treated with oxLDL plus MAPTAM, FIG. 27) is recorded as “decreased”. The “protein levels of OCT-1 (western blot)” value in data set [3] is “significant decrease”.

In the case of “let-7g: mature form of microRNA-let-7g, as set forth in SEQ ID NO. 2 (UGAGGUAGUAGUUUGUACAGUU; listed as RNA, chemistry not given here; listed as Homo sapiens)”, the “luciferase activity, pMIR-LOX-1-3UTR versus pMIR-LOX-1 mutant 3'UTR” value in data set [4] is “targets to the 3′UTR region of LOX-1 to suppress the expression of LOX-1”.
